Data reported in patent US4124598A, “Psoralens” (Hoffmann-La Roche Inc., priority 1976, dated 1978).
pKd: −log10 of the molar value. Like-named read-outs stand apart in the source and are kept apart here.

Key:
[1] = Hydrolysis in aqueous solution; format: physicochemical
[2] = tested on: Calf thymus DNA; assay: Equilibrium dialysis, non-covalent binding to DNA; conditions: for (PS)/(S) for DNA in Saturated Solution: occupied/unoccupied binding sites
Experimental: (§1) In order to establish the dissociation constants from DNA and RNA, the non-covalent binding was ascertained. Non-covalent binding determines the presence of the psoralen within the nucleic acid helix. Its presence is determined in the absence of any radiant energy. As noted before, radiant energy is necessary to activate the psoralen covalent binding reaction with nucleic acid base pairs.
(§2) To determine the non-covalent binding, Calf thymus DNA (Sigma Type I) was dissolved in a 0.01 M Tris 0.001 M EDTA pH 8.5 buffer at a concentration of 25 ug/ml. A quantity of this DNA solution was placed in a dialysis bag (pretreated by boiling in NaHCO3), and the various tritiated derivatives were added inside the bag in half the cases and outside the bag in the other half. The molar ratio of psoralen molecules to base pairs was approximately 1:25. The bags were placed in vials filled with 18 ml of buffer and put on a shaker for 48-60 hours. After this period, radioactivity was determined both inside and outside the bags and the optical density of the DNA solution measured. From this information, and the specific activity of each derivative, the amount of drug non-covalently bound to the DNA was determined. Binding of the derivatives to Drosophila melanogaster ribosomal RNA was measured in exactly the same manner.
(§3) The units of the dissociation constants are moles/liter. Solubilities and molar extinction coefficients (ε) were obtained in pure water, the equilibrium constants (KD) in 0.01 M Tris.

[3] = molecular target: Drosophila melanogaster ribosomal RNA; assay: Equilibrium dialysis, non-covalent binding to RNA
Experimental: as §1, §2, §3

[4] = Solubility in pure water; format: physicochemical; conditions: pure water
Description: In order to study solubilities and dissociation constants, it is most convenient to prepare tritiated derivatives of the psoralen compounds. Thus, well-known radiation counting methods may be utilized to monitor the presence of the psoralens in solutions, or in nucleic acids.
as §3

[5] = Molar extinction coefficient in pure water; format: physicochemical
Description: as §3

[6] = tested on: DNA (calf thymus); assay: Low intensity photoaddition (covalent binding) to DNA; conditions: for A (footnote 1, shown as drawing 9) / B = percent of added psoralen covalently bound: 25 μg/ml DNA, psoralen:base pair 1:3
Experimental: (§4) The covalent binding of the psoralens to DNA and RNA was studied. To achieve covalent binding, it is necessary to supply radiant energy (light) to the binding sites. These studies were carried out as follows:
(§5) The DNA and RNA used in the covalent binding studies have been described previously. Samples of each nucleic acid were prepared at a concentration of 25 ug/ml in 0.01 m Tris 0.001 M EDTA buffer. The radioactive-psoralen derivatives were added in a ratio of one psoralen for every three base pairs. The irradiation was carried out in one of the two following devices.
The low intensity irradiations were performed with a modified slide projector which was fitted with a 400 watt General Electric mercury vapor lamp (H 400 A 33-1/T16). The image of the arc was focused on the same cell, jacketed by a cobaltous nitrate solution which was also used for the high intensity irradiations. The light intensity delivered to the sample in this device was 4 to 6 mw/cm^2. The high intensity irradiations were carried out in a device containing two of the sam 400 watt General Electric mercury vapor lamps which were mounted on either side of a double walled sample chamber at a distance between centers of 4.0 cm. The chamber was cooled to 10° C. by continuous circulation of a temperature regulated solution of cobaltous nitrate (40% w/w). The cobalt solution served as an ultraviolet filter which allowed a maximum transmittance of 365 nm light and a window from approximately 340-380 nm. The intensity of the light at the surface of the inner sample chamber was approximately 100 mw/cm^2. The nucleic acid-psoralen mixture was placed in the inner chamber where it was continuously stirred throughout the irradiation. […] Each aliquot was then extracted twice with chloroform/iso-amyl alcohol (24:1) to remove unreacted psoralen followed by exhaustive dialysis against 0.01 M Tris, 0.001 M EDTA buffer. The successful extraction of unbound psoralen by the chloroform-isoamyl alcohol required the aqueous phase to be at least 0.15 M in NaCl. Finally, the optical density of the nucleic-acid psoralen mixture was taken and its radioactivity determined, thus giving the amount of derivative covalently bound to the DNA or RNA. Taking samples, at spaced time intervals also permitted an assessment of the kinetics of the covalent binding.

[7] = tested on: DNA (calf thymus); assay: High intensity photoaddition (covalent binding) to DNA; conditions: 25 μg/ml DNA, psoralen:base pair 1:3
Experimental: as §4, §5
(§6) The low intensity irradiations were performed with a modified slide projector which was fitted with a 400 watt General Electric mercury vapor lamp (H 400 A 33-1/T16). The image of the arc was focused on the same cell, jacketed by a cobaltous nitrate solution which was also used for the high intensity irradiations. The light intensity delivered to the sample in this device was 4 to 6 mw/cm^2. The high intensity irradiations were carried out in a device containing two of the sam 400 watt General Electric mercury vapor lamps which were mounted on either side of a double walled sample chamber at a distance between centers of 4.0 cm. The chamber was cooled to 10° C. by continuous circulation of a temperature regulated solution of cobaltous nitrate (40% w/w). The cobalt solution served as an ultraviolet filter which allowed a maximum transmittance of 365 nm light and a window from approximately 340-380 nm. The intensity of the light at the surface of the inner sample chamber was approximately 100 mw/cm^2. The nucleic acid-psoralen mixture was placed in the inner chamber where it was continuously stirred throughout the irradiation. Aliquots of each solution (derivative plus nucleic acid) were taken at 20, 40 and 60 minutes. Each aliquot was then extracted twice with chloroform/iso-amyl alcohol (24:1) to remove unreacted psoralen followed by exhaustive dialysis against 0.01 M Tris, 0.001 M EDTA buffer. The successful extraction of unbound psoralen by the chloroform-isoamyl alcohol required the aqueous phase to be at least 0.15 M in NaCl. Finally, the optical density of the nucleic-acid psoralen mixture was taken and its radioactivity determined, thus giving the amount of derivative covalently bound to the DNA or RNA. Taking samples, at spaced time intervals also permitted an assessment of the kinetics of the covalent binding.

[8] = tested on: RNA (Drosophila melanogaster ribosomal RNA); assay: High intensity photoaddition (covalent binding) to RNA; conditions: 25 μg/ml RNA, psoralen:base pair 1:3
Experimental: as §4, §5, §6

[9] = tested on: vesicular stomatitis virus; format: cell-based, Vesicular stomatitis virus Indiana strain; conditions: high dose rates, e.g., 30 μg/ml
[10] = tested on: DNA; assay: Reactivity with DNA (general statement); format: binding, calf
Experimental: as §4, §5
as §6, with “Each aliquot was then extracted twice with chloroform/iso-amyl alcohol (24:1) to remove unreacted psoralen followed by exhaustive dialysis against 0.01 M Tris, 0.001 M EDTA buffer. The successful extraction of unbound psoralen by the chloroform-isoamyl alcohol required the aqueous phase to be at least 0.15 M in NaCl.” left out, “Taking samples, at spaced time intervals also permitted an assessment of the kinetics of the covalent binding.” left out

[11] = tested on: Calf thymus DNA; conditions: calculated from literature results, cited from earlier work
[12] = molecular target: Drosophila melanogaster ribosomal RNA; conditions: calculated from literature results, cited from earlier work
[13] = calculated from literature results, cited from earlier work
[14] = 0.01 M Tris, non-covalent binding

Cc1oc2c(C)c3oc(=O)cc(C)c3cc2c1CCl [4'-chloromethyl-4,5',8-trimethyl psoralen]
hydrolysis of the chloromethyl substituent in aqueous solution [1]: readily hydrolysed in aqueous solution

Cc1oc2c(C)c3oc(=O)cc(C)c3cc2c1CO [4'-hydroxymethyl-4,5',8-trimethyl psoralen]
pKd [2, 14]: 3.54
DNA site saturation, one psoralen per base pairs ([2]; saturated solution, expected from KD and solubility): one psoralen per three base pairs
(PS)/(S) for DNA in Saturated Solution ([2]; saturated solution): 0.55
(PS)/(S) for DNA in Saturated Solution ([2]; saturated solution, listed as 4'-hydroxmethyl trioxsalen): 0.5
times more strongly binding to DNA than methoxsalen ([2]; vs methoxsalen): 10 times
pKd [3, 14]: 3.00
(PS)/(S) for RNA in Saturated Solution ([3]; saturated solution, occupied/unoccupied binding sites): 0.16
solubility [4]: 41 µg/mL
solubility ([4]; molar): 160 µM
Extinction coefficient ε, 250 nm [5]: 25000 L/mol/cm
A (footnote 1, shown as drawing 9) ([6]; 5 min irradiation): 89.0
B = percent of added psoralen covalently bound ([6]; 5 min irradiation): 3.0%
A (footnote 1, shown as drawing 9) ([6]; 10 min irradiation): 59.6
B = percent of added psoralen covalently bound ([6]; 10 min irradiation): 4.6%
A (footnote 1, shown as drawing 9) ([6]; 30 min irradiation): 26.0
B = percent of added psoralen covalently bound ([6]; 30 min irradiation): 10.3%
A (footnote 1, shown as drawing 9) ([6]; 60 min irradiation): 19.5
B = percent of added psoralen covalently bound ([6]; 60 min irradiation): 13.8%
A (footnote 1, shown as drawing 9) ([6]; 90 min irradiation): 17.2
B = percent of added psoralen covalently bound ([6]; 90 min irradiation): 15.7%
moles of psoralen bound per mole of base pairs ([6]; 90 minutes irradiation): 0.06 moles per mole of base pairs
remains free in the solution ([6]; after 90 minutes of irradiation): more than 80%
A (footnote 1, shown as drawing 10) ([7]; 20 min irradiation): 9.1
B = percent of added psoralen covalently bound ([7]; 20 min irradiation): 33.0%
A (footnote 1, shown as drawing 10) ([7]; 40 min irradiation): 9.2
B = percent of added psoralen covalently bound ([7]; 40 min irradiation): 32.6%
A (footnote 1, shown as drawing 10) ([7]; 60 min irradiation): 9.1
B = percent of added psoralen covalently bound ([7]; 60 min irradiation): 33.0%
A (footnote 1, shown as drawing 11) ([8]; 20 min irradiation): 26.3
B = percent of added psoralen covalently bound ([8]; 20 min irradiation): 11.5%
A (footnote 1, shown as drawing 11) ([8]; 40 min irradiation): 24.8
B = percent of added psoralen covalently bound ([8]; 40 min irradiation): 12.1%
A (footnote 1, shown as drawing 11) ([8]; 60 min irradiation): 23.5
B = percent of added psoralen covalently bound ([8]; 60 min irradiation): 13.0%
effectiveness in inactivation of vesicular stomatitis virus vs 4,5',8-trimethyl psoralen [9]: nearly one thousand times more effective
reactivity with DNA [10]: excellent reactivity with DNA

COc1c2occc2cc2ccc(=O)oc12 [8-methoxypsoralen, 8-methoxy psoralen]
one psoralen per n base pairs at equilibrium (best achievable) ([2]; saturated solution): ~20 base pairs
Extinction coefficient ε, 250 nm [5]: 19000 L/mol/cm
pKd [11]: 2.60
(PS)/(S) for DNA in Saturated Solution ([11]; saturated solution): 0.068
pKd [12]: 1.77
(PS)/(S) for RNA in Saturated Solution ([12]; saturated solution): 0.010
solubility [13]: 36 µg/mL
solubility ([13]; molar): 170 µM
